Measurements: paper PMC6226472, “Cardol triene inhibits dengue infectivity by targeting kl loops and preventing envelope fusion” (Scientific Reports, 2018)

What was measured:
[1] = test system: DENV2 NGC; assay: Efficacy study (EC50) in DENV2 infected Vero cells, plaque titration; assay type: cell-based, Dengue virus
Description: Next, we studied the efficacies (EC50) of the phenolic lipid homologues against DENV2 infectivity in Vero cells. Briefly, compounds at 10 different concentrations were added to DENV2-infected Vero cells (M.O.I. of 0.1) during and post infection and the viral inhibition was determined by plaque titration. […] Noted that anacardic acids were major components of CNSL extracts and all homologues were purified directly from CNSL itself.
Next, each homologue was analyzed for effective concentration (EC50). Vero (5 × 10^4) cells were seeded, and infected with DENV2 (M.O.I. of 0.1) as previously described. Phenolic lipid mixtures and homologues were serially diluted in DMSO to the final concentrations as follows; 0, 0.5, 1, 1.5, 2, 2.5, 5, 7.5, 10, 25, and 50 µM. DMSO at the concentration of 1% was used as a mock treatment referring to 100% infection. Infected cells were treated with the designated compounds during and post infection. Supernatants were collected at 3 days after infection for analysis of virion production by plaque titration. Non-linear regression analysis was used to determine the effective concentrations. […] The therapeutic index (TI) was a ration of CC50/EC50 of the compound.

[2] = Cytotoxic concentration (CC50), MTS; assay type: cell-based; conditions: African green monkey, Vero cells
Description: Cytotoxic concentrations (CC50) were also studied using Vero cells. Briefly, the 10^4 cells were seeded into each well of 96-well plates. After an overnight incubation, phenolic lipids were serially diluted in DMSO to the final concentrations as follows; 25, 50, 100, 200, 300, 400, and 500 µM. Each concentration was performed in quadruplicates. DMSO at 1% was used as a mock treatment referring to 100% cell viability. Cells were incubated for 48 h before cell viability was accessed using CellTiler 96® Aqueous One Solution Cell Proliferation Assay kit (Promega, Wisconsin, USA). Non-linear regression analysis was used to determine cytotoxic concentrations (CC50) of each experiment.

[3] = test system: DENV3 (16562); assay: Efficacy (EC50) in infected Vero cells; assay type: cell-based; conditions: Dengue virus
[4] = test system: DENV4 (c0036); assay: Efficacy (EC50) in infected Vero cells; assay type: cell-based; conditions: Dengue virus
[5] = test system: dengue virus serotype 1–4; assay: Pan-dengue inhibition (EC50s over serotypes); assay type: cell-based; conditions: DENV1, read-out: EC50s, pan-dengue inhibition
[6] = test system: DENV2; assay: Time of drug addition study (TOA); assay type: cell-based, Dengue virus; conditions: 10 and 20 µM, added 0-48 h after infection, 72 h incubation
Description: Time of drug addition assay is a standard method to primarily identify the possible target of a newly characterized compound[20]. Based on the previous efficacy results, cardol triene was chosen as a representative of all CNSL-derived phenolic lipids. Cardol triene was prepared in DMSO and added to the final concentrations of 10 µM and 20 µM to DENV2 infected Vero cells (M.O.I. of 0.1). The compound was added to the cells at different time-points. DMSO alone was added to the infected cells as a mock treatment. After 72 h incubation, cell lysates and supernatants were collected for analysis of intracellular RNAs and infectious virions by RT-qPCR and plaque titration, respectively.
Vero (5 × 10^4) cells were seeded into each well of 24-well plates. cells were infected with DENV2 (M.O.I. of 0.1) after an overnight incubation[44],[45]. Cardol triene (C15:3) at 10 and 20 µM were added to the cells during (0 h) and after infections at early time-points as follows; 1, 2, 4, 6, 8, 10, 12, 24, 36, and 48 h. Moreover, late time-points after were also accessed at 12, 14, 16, 18, 20, 22, 24, 36, 48, 60, and 72 h after infections. DMSO alone was added to the infected cells at respective time-points as a mock treatment referring to 100% infectivities. […] Data were calculated, assembled, and reported as percent intracellular RNAs and infectious virions under the drug treatment at designated time-points.

[7] = test system: DENV2; assay: Fusion inhibition study in C6/36 cells; assay type: cell-based, Dengue virus; conditions: 10 µM, C6/36, M.O.I. of 1, 48 h, MES
Description: (§1) Fusion inhibition study[25]–[27] of DENV and ZIKV were used to confirm the findings. Briefly, cardol triene at 10 µM was added to DENV2 or ZIKV (Fig. 6C-D) infected C6/36 cells at the M.O.I. of 1 for 48 h before inducing acidic condition by MES. The 4G2 antibody was used as a positive control inhibiting both DENV2 and ZIKV fusion. […] Therefore, we concluded that one of the targets of cardol triene, and other CNSL-derived phenolic lipids, was the kl loops of DENV E protein, thus preventing the conformational change of DENV dimer to trimer that was required to initiate pH-dependent fusion.
(§2) C6/36 (2 × 10^5) cells were seeded into 24-well plates before infection with DENV2 and ZIKV (M.O.I. of 1) as described. Cardol triene at 10 µM were introduced to the DENV2 and ZIKV infected cells during and after infection. […] Cells were incubate at 28 °C for 2 days before addition of 0.5 M 2-(N-morpholino) ethanesulfonic acid (MES) (pH 5.0) (Sigma Aldrich, St Louis, USA). Moreover, cells from selected wells subsequently underwent DAPI staining. Cell-cell fusion was observed under brightfield and fluorescence using an Eclipse TS100 Inverted Routine Microscope (Nikon, New York, USA).

[8] = test system: ZIKV; assay: Fusion inhibition study in C6/36 cells; assay type: cell-based, Zika virus; conditions: 10 µM, C6/36, M.O.I. of 1, 48 h, MES
Description: as §1, §2

[9] = test system: BHK-21/DENV2 replicon cells; assay: Replicon cell viability, MTS assay; assay type: cell-based; conditions: 10 µM and 20 µM, 72 h
Description: We analyzed the replication inhibition using BHK-21/DENV2 replicon cells stably expressed the non-structural proteins. Cardol triene at 10 µM and 20 µM were added to the replicon cells for 72 h and the replication inhibition was accessed by RT-qPCR of DENV2 NS1. Ribavirin, a known inhibitor of flaviviral replication, was used as a positive inhibition control. […] Replicon cell viability under cardol triene treatment was also analyzed using an MTS assay. […] Therefore, we concluded that cardol triene inhibited DENV RNA replicon replication, potentially in dose-dependent manner.
Figure 7 Replicon inhibition study. (A) DENV2/BHK-21 replicon (5 × 10^4 cells) were treated with cardol triene or ribavirin for 72 h. Percent inhibition was calculated from RT-qPCR of cell lysate. (B) Percent DENV2/BHK-21 replicon cell viability at 72 h under 10 and 20 µM cardol triene. Error bars represented standard error of means (SEM) from three independent experiments.

[10] = test system: normal human lung fibroblast cell line, GM07492A; set-up: method as in PMID 27934289; conditions: read-out: cytotoxicity value (CC50); cited from earlier work

C=CC/C=C/C/C=C/CCCCCCCc1cc(O)cc(O)c1 [Cardol triene, 5-[8(Z), 11(Z), 14-pentadecatrienyl]resorcinol]
EC50 ([1]; Dengue virus, 72 h, DENV2 NGC (M.O.I. of 0.1) infected Vero cells, plaque titration, 3 days, read-out: EC50): 7.13 ± 0.72 µM | TI (therapeutic index, CC50/EC50) ([1]; Vero CC50 / DENV2 EC50): 29.07 | CC50 at 48 h [2]: 207 ± 5.24 µM | EC50 [3]: 8.98 ± 1.77 µM | EC50 [4]: 8.21 ± 0.34 µM | EC50 [5]: 5.35 to 8.89 µM | intracellular RNAs and infectious virions by time of drug addition [6]: decreased immediately at 1 h and persisted until 48 h after infections | DENV2 pH-dependent cell fusion [7]: exclusively inhibited dengue fusion | ZIKV pH-dependent cell fusion [8]: ZIKV-induced fused cells and nuclei were present | replicon cell viability [9]: did not have effect on cell viability | CC50 [10]: 193 ± 6 µM
